# Assay results from US8309718B2, “4-pyrazolyl-N-arylpyrimidin-2-amines and 4-pyrazolyl-N-heteroarylpyrimidin-2-amines as janus kinase inhibitors” (Incyte Corporation, priority 2007, dated 2012).
# Molecular target: T1, human JAK2 (Homo sapiens, UniProt O60674)
# T1 construct: JAK2 (a.a. 828-1132); His tag (N); made in house; host or cells: insect cells (baculovirus)
# Experiment: In vitro JAK kinase assay (HTRF, phosphorylation of biotinylated peptide)
# Format: biochemical
# Conditions: catalytic domain a.a. 828-1132, 30 μM ATP, 500 nM peptide, room temperature 1 hr; read-out: JAK-2 IC50
# In short: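 IC50 from HTRF detection (Eu-Py20 antibody, SA-APC) of biotinylated-peptide phosphorylation (500 nM), run 1 h at RT. Enzyme: N-His human JAK2 kinase domain a.a. 828-1132 from insect cells; ATP 30 μM; buffer 50 mM Tris pH 7.8 with NaCl, DTT, BSA.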
# T1 sequence (O60674 828-1132): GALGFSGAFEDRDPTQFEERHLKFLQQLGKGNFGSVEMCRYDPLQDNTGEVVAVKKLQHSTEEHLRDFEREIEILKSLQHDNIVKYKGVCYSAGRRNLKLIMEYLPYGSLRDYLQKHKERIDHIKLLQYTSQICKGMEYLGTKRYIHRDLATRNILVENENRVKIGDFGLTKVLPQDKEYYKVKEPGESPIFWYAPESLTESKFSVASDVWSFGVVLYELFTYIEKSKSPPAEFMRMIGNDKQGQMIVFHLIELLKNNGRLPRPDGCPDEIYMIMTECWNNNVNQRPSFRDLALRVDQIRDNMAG
row,IC50,Structure (SMILES)
1,< 100 nM,"CN1CCN(C(=O)c2cccc(Nc3nccc(-c4cnn(C(CC#N)C5CCCC5)c4)n3)c2)CC1 (racemic) [Example 137, 3-cyclopentyl-3-(4-(2-(3-(4-methylpiperazine-1-carbonyl)phenylamino)pyrimidin-4-yl)-1H-pyrazol-1-yl)propanenitrile]"
2,< 100 nM,"N#CCC(C1CCCC1)n1cc(-c2ccnc(Nc3cccc(C(=O)N4CCN(CCO)CC4)c3)n2)cn1 (racemic) [Example 138, 3-cyclopentyl-3-(4-(2-(3-(4-(2-hydroxyethyl)piperazine-1-carbonyl)phenylamino)pyrimidin-4-yl)-1H-pyrazol-1-yl)propanenitrile]"
3,< 100 nM,"N#CCC(C1CCCC1)n1cc(-c2ccnc(Nc3cccc(C(=O)N4CCCC4)c3)n2)cn1 (racemic) [Example 139, 3-cyclopentyl-3-(4-(2-(3-(pyrrolidine-1-carbonyl)phenylamino)pyrimidin-4-yl)-1H-pyrazol-1-yl)propanenitrile]"
4,< 100 nM,"N#CCC(C1CCCC1)n1cc(-c2ccnc(Nc3cccc(C(=O)N4CCNC(=O)C4)c3)n2)cn1 (racemic) [Example 140, 3-cyclopentyl-3-(4-(2-(3-(3-oxopiperazine-1-carbonyl)phenylamino)pyrimidin-4-yl)-1H-pyrazol-1-yl)propanenitrile]"
5,< 100 nM,"N#CCC(C1CCCC1)n1cc(-c2ccnc(Nc3cccc(C(=O)N4CCC4)c3)n2)cn1 (racemic) [Example 142, 3-(4-(2-(3-(azetidine-1-carbonyl)phenylamino)pyrimidin-4-yl)-1H-pyrazol-1-yl)-3-cyclopentylpropanenitrile]"
6,< 100 nM,"CC(=O)N1CCN(C(=O)c2cccc(Nc3nccc(-c4cnn(C(CC#N)C5CCCC5)c4)n3)c2)CC1 (racemic) [Example 143, 3-(4-(2-(3-(4-acetylpiperazine-1-carbonyl)phenylamino)pyrimidin-4-yl)-1H-pyrazol-1-yl)-3-cyclopentylpropanenitrile]"
7,< 100 nM,"N#CCC(C1CCCC1)n1cc(-c2ccnc(Nc3cccc(C(=O)N4CCC(Cc5cccnc5)CC4)c3)n2)cn1 (racemic) [Example 144, 3-cyclopentyl-3-(4-(2-(3-(4-(pyridin-3-ylmethyl)piperidine-1-carbonyl)phenylamino)pyrimidin-4-yl)-1H-pyrazol-1-yl)propanenitrile]"
8,< 100 nM,"N#CCC(C1CCCC1)n1cc(-c2ccnc(Nc3cccc(C(=O)NCc4cccnc4)c3)n2)cn1 (racemic) [Example 146, 3-(4-(1-(2-cyano-1-cyclopentylethyl)-1H-pyrazol-4-yl)pyrimidin-2-ylamino)-N-(pyridin-3-ylmethyl)benzamide]"
9,< 100 nM,"N#CCC(C1CCCC1)n1cc(-c2ccnc(Nc3cccc(C(=O)N4CCOCC4)c3)n2)cn1 (racemic) [Example 147, 3-cyclopentyl-3-(4-(2-(3-(morpholine-4-carbonyl)phenylamino)pyrimidin-4-yl)-1H-pyrazol-1-yl)propanenitrile]"
10,< 100 nM,"Cc1cc(CNC(=O)c2cccc(Nc3nccc(-c4cnn(C(CC#N)C5CCCC5)c4)n3)c2)no1 (racemic) [Example 148, 3-(4-(1-(2-cyano-1-cyclopentylethyl)-1H-pyrazol-4-yl)pyrimidin-2-ylamino)-N-((5-methylisoxazol-3-yl)methyl)benzamide]"
11,< 100 nM,"N#CCC(C1CCCC1)n1cc(-c2ccnc(Nc3cccc(C(=O)N4CCC(O)(c5ccccc5)CC4)c3)n2)cn1 (racemic) [Example 150, 3-cyclopentyl-3-(4-(2-(3-(4-hydroxy-4-phenylpiperidine-1-carbonyl)phenylamino)pyrimidin-4-yl)-1H-pyrazol-1-yl)propanenitrile]"
12,< 100 nM,"N#CCC(C1CCCC1)n1cc(-c2ccnc(Nc3cccc(C(=O)N4CCC(O)(Cc5ccccc5)CC4)c3)n2)cn1 (racemic) [Example 151, 3-(4-(2-(3-(4-benzyl-4-hydroxypiperidine-1-carbonyl)phenylamino)pyrimidin-4-yl)-1H-pyrazol-1-yl)-3-cyclopentylpropanenitrile]"
13,< 100 nM,"N#CCC(C1CCCC1)n1cc(-c2ccnc(Nc3cccc(C(=O)NCC4CCOCC4)c3)n2)cn1 (racemic) [Example 153, 3-(4-(1-(2-cyano-1-cyclopentylethyl)-1H-pyrazol-4-yl)pyrimidin-2-ylamino)-N-((tetrahydro-2H-pyran-4-yl)methyl)benzamide]"
14,< 100 nM,"CN1CCC(NC(=O)c2cccc(Nc3nccc(-c4cnn(C(CC#N)C5CCCC5)c4)n3)c2)CC1 (racemic) [Example 154, 3-(4-(1-(2-cyano-1-cyclopentylethyl)-1H-pyrazol-4-yl)pyrimidin-2-ylamino)-N-(1-methylpiperidin-4-yl)benzamide]"
15,< 100 nM,"N#CCC(C1CCCC1)n1cc(-c2ccnc(Nc3cccc(C(=O)N4CCC(c5ccccc5)CC4)c3)n2)cn1 (racemic) [Example 155, 3-cyclopentyl-3-(4-(2-(3-(4-phenylpiperidine-1-carbonyl)phenylamino)pyrimidin-4-yl)-1H-pyrazol-1-yl)propanenitrile]"
16,< 100 nM,"N#CCC(C1CCCC1)n1cc(-c2ccnc(Nc3cccc(C(=O)N4CCN(c5ncccn5)CC4)c3)n2)cn1 (racemic) [Example 160, 3-cyclopentyl-3-(4-(2-(3-(4-(pyrimidin-2-yl)piperazine-1-carbonyl)phenylamino)pyrimidin-4-yl)-1H-pyrazol-1-yl)propanenitrile]"
17,< 100 nM,"N#CCC(C1CCCC1)n1cc(-c2ccnc(Nc3cccc(C(=O)NCCc4cccnc4)c3)n2)cn1 (racemic) [Example 161, 3-(4-(1-(2-cyano-1-cyclopentylethyl)-1H-pyrazol-4-yl)pyrimidin-2-ylamino)-N-(2-(pyridin-3-yl)ethyl)benzamide]"
18,< 100 nM,"COc1ccccc1CNC(=O)c1cccc(Nc2nccc(-c3cnn(C(CC#N)C4CCCC4)c3)n2)c1 (racemic) [Example 163, 3-(4-(1-(2-cyano-1-cyclopentylethyl)-1H-pyrazol-4-yl)pyrimidin-2-ylamino)-N-(2-methoxybenzyl)benzamide]"
19,< 100 nM,"N#CCC(C1CCCC1)n1cc(-c2ccnc(Nc3cccc(C(=O)N4CCC(Oc5ccccc5)CC4)c3)n2)cn1 (racemic) [Example 164, 3-cyclopentyl-3-(4-(2-(3-(4-phenoxypiperidine-1-carbonyl)phenylamino)pyrimidin-4-yl)-1H-pyrazol-1-yl)propanenitrile]"
20,< 100 nM,"N#CCC(C1CCCC1)n1cc(-c2ccnc(Nc3cccc(C(=O)NC4(CO)CCCC4)c3)n2)cn1 (racemic) [Example 165, 3-(4-(1-(2-cyano-1-cyclopentylethyl)-1H-pyrazol-4-yl)pyrimidin-2-ylamino)-N-(1-(hydroxymethyl)cyclopentyl)benzamide]"
21,< 100 nM,"N#CCC(C1CCCC1)n1cc(-c2ccnc(Nc3cccc(C(=O)N4CCN(c5ccc(C#N)cc5)CC4)c3)n2)cn1 (racemic) [Example 166, 4-(4-(3-(4-(1-(2-cyano-1-cyclopentylethyl)-1H-pyrazol-4-yl)pyrimidin-2-ylamino)benzoyl)piperazin-1-yl)benzonitrile]"
22,< 100 nM,"N#CCC(C1CCCC1)n1cc(-c2ccnc(Nc3cccc(C(=O)N4CCN(c5ccccc5)CC4)c3)n2)cn1 (racemic) [Example 168, 3-cyclopentyl-3-(4-(2-(3-(4-phenylpiperazine-1-carbonyl)phenylamino)pyrimidin-4-yl)-1H-pyrazol-1-yl)propanenitrile]"
23,< 100 nM,"N#CCC(C1CCC1)n1cc(-c2ccnc(Nc3ccc(N4CCOCC4)cc3)n2)cn1 (racemic) [Example 171, 3-cyclobutyl-3-(4-(2-(4-morpholinophenylamino)pyrimidin-4-yl)-1H-pyrazol-1-yl)propanenitrile]"
24,< 100 nM,"N#CCC(C1CCC1)n1cc(-c2ccnc(Nc3ccc(-n4cccn4)cc3)n2)cn1 (racemic) [Example 173, 3-(4-(2-(4-(1H-pyrazol-1-yl)phenylamino)pyrimidin-4-yl)-1H-pyrazol-1-yl)-3-cyclobutylpropanenitrile]"
25,< 100 nM,"N#CCC(C1CCC1)n1cc(-c2ccnc(Nc3ccc(N4CCCCC4=O)cc3)n2)cn1 (racemic) [Example 174, 3-cyclobutyl-3-(4-(2-(4-(2-oxopiperidin-1-yl)phenylamino)pyrimidin-4-yl)-1H-pyrazol-1-yl)propanenitrile]"
26,< 100 nM,"N#CCC(C1CCC1)n1cc(-c2ccnc(Nc3ccc(N4CCOCC4=O)cc3)n2)cn1 (racemic) [Example 175, 3-cyclobutyl-3-(4-(2-(4-(3-oxomorpholino)phenylamino)pyrimidin-4-yl)-1H-pyrazol-1-yl)propanenitrile]"
27,< 100 nM,"N#CCC(C1CCC1)n1cc(-c2ccnc(Nc3cccc(-c4cnco4)c3)n2)cn1 (racemic) [Example 176, 3-cyclobutyl-3-(4-(2-(3-(oxazol-5-yl)phenylamino)pyrimidin-4-yl)-1H-pyrazol-1-yl)propanenitrile]"
28,< 100 nM,"N#CCC(C1CC1)n1cc(-c2ccnc(Nc3ccc(N4CCOCC4)cc3)n2)cn1 (racemic) [Example 177, 3-cyclopropyl-3-(4-(2-(4-morpholinophenylamino)pyrimidin-4-yl)-1H-pyrazol-1-yl)propanenitrile]"
29,< 100 nM,"N#CCC(C1CC1)n1cc(-c2ccnc(Nc3ccc(-n4cccn4)cc3)n2)cn1 (racemic) [Example 178, 3-(4-(2-(4-(1H-pyrazol-1-yl)phenylamino)pyrimidin-4-yl)-1H-pyrazol-1-yl)-3-cyclopropylpropanenitrile]"
30,< 100 nM,"N#CCC(C1CC1)n1cc(-c2ccnc(Nc3ccc(N4CCCCC4=O)cc3)n2)cn1 (racemic) [Example 179, 3-cyclopropyl-3-(4-(2-(4-(2-oxopiperidin-1-yl)phenylamino)pyrimidin-4-yl)-1H-pyrazol-1-yl)propanenitrile]"
